Test results reported in US12703706B2, “Anthelmintic compounds comprising a thienopyridine structure” (Intervet Inc., priority 2020, dated 2026).

Target: human Maxi K channel (BK channel), KCNMA1 (KCa1.1) and beta1 (KCNMB1) subunits (Homo sapiens, UniProt Q12791)
Sequence (Q12791 1-1178 isoform Q12791-5): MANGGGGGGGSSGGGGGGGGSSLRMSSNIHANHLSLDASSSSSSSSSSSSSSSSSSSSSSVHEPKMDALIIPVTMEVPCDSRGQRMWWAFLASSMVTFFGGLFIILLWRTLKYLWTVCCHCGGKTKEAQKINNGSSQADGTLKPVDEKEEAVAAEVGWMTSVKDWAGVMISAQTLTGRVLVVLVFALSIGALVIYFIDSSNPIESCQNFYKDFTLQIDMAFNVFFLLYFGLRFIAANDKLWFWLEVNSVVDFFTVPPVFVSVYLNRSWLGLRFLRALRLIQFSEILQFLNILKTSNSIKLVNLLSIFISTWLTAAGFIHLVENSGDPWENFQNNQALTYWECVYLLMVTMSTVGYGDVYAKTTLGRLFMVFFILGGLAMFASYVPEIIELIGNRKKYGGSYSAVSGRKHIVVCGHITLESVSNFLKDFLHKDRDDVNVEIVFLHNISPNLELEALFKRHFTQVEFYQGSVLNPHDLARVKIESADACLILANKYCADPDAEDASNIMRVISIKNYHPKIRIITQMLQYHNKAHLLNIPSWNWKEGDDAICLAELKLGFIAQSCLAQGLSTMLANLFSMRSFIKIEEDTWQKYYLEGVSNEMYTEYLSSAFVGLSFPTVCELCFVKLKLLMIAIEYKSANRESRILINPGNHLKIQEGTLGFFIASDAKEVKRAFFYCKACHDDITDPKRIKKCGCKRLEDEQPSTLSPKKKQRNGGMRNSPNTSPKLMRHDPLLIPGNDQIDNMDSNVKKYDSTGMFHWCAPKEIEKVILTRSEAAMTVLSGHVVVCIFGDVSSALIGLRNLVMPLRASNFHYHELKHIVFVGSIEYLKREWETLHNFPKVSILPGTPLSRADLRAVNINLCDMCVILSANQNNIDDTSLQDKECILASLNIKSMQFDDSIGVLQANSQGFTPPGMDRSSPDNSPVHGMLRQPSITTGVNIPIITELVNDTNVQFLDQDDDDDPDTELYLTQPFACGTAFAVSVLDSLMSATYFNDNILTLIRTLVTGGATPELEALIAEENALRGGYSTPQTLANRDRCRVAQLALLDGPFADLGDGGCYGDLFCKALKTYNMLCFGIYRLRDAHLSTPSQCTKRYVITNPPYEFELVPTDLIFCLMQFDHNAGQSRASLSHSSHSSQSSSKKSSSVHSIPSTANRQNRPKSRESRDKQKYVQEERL
Sequence (Q16558 whole entry partner): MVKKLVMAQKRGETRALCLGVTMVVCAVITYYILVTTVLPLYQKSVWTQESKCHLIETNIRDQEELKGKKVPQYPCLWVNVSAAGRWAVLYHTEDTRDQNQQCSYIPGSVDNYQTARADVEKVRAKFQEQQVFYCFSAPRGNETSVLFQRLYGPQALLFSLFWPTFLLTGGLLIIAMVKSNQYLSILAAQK
Method: In Vitro Assay: Agonistic Activity at the Human Maxi K Channel (BK Channel)
A CHO K1 cell line was stably transfected with the KCNMA1 (KCa1.1, U11058) and betal (KCNMB1) subunits of the human Maxi K channel (Ponte et al, Molecular Pharmacology 2012, 81(4), 567-577).
Cells were seeded in microtiter plates (black 384-well MTP, clear bottom) in a concentration of 20,000 cells/well in 25 μl medium and cultured for 20 to 24 hours at 37° C. and 5% CO2. After incubation, 25 μl of FMP-dye Blue-Tyrode's was added to each well and incubated at room temperature for 30 min. Ten minutes after addition of 12.5 μl compound solution, the plates are transferred to the FLIPR for measurement.
For the membrane potential measurements, plates were placed in the FLIPR Penta (Molecular Devices). The baseline measurement of the fluorescence was stared for 20 sec (Exc. 510-545 nm, Emm. 565-625 nm). Potential channel opening measurement was started by addition of 25 μl KCl-Tyrode (final assay concentration of the KCl-Tyrode: 70 mM KCl, 2 mM CaCl2, 1 mM MgCl2, 0.8 mM NaH2PO4, 5 mM Glucose, 28 mM Hepes, pH 7.4, including the voltage sensitive dye). The complete measurement takes 150 s.
EC50 values were determined in triplicate utilizing compound dilution series. The data were determined at least in two independent tests. The data were proceeded by using the ActivityBase XE Runner software (IDBS) for curve fitting and calculation of the half-maximal effective concentration.

SMILES: O=C(N[C@H]1CCOc2ccccc21)c1cnc2c(-c3cc(Cl)cc(Cl)c3)csc2c1N1CCOCC1 [Compound 1]
- EC50: > 30 µM

SMILES: C[C@H](NC(=O)c1cnc2c(-c3cc(Cl)cc(Cl)c3)csc2c1N1CCOCC1)c1ccccc1 [Compound 2]
- EC50: > 30 µM

SMILES: O=C(N[C@H]1CCc2ccccc21)c1cnc2c(-c3cc(Cl)cc(Cl)c3)csc2c1N1CCOCC1 [Compound 3]
- EC50: > 30 µM

SMILES: O=C(N[C@H]1CCOc2ccccc21)c1cnc2c(-c3cccc(Cl)c3Cl)csc2c1N1CCOCC1 [Compound 4, (S)—N-(chroman-4-yl)-3-(2,3-dichlorophenyl)-7-morpholinothieno[3,2-b]pyridine-6-carboxamide]
- EC50: 5 to 10 µM

SMILES: C[C@H](NC(=O)c1cnc2c(-c3cccc(Cl)c3Cl)csc2c1N1CCOCC1)c1ccccc1 [Compound 5]
- EC50: > 30 µM

SMILES: O=C(N[C@H]1CCc2ccccc21)c1cnc2c(-c3cccc(Cl)c3Cl)csc2c1N1CCOCC1 [Compound 6]
- EC50: 5 to 10 µM

SMILES: CN(C)c1c(C(=O)N[C@H]2CCOc3ccccc32)cnc2c(-c3cc(Cl)cc(Cl)c3)csc12 [Compound 7]
- EC50: > 30 µM

SMILES: C[C@H](NC(=O)c1cnc2c(-c3cc(Cl)cc(Cl)c3)csc2c1N(C)C)c1ccccc1 [Compound 8]
- EC50: > 30 µM

SMILES: CN(C)c1c(C(=O)N[C@H]2CCc3ccccc32)cnc2c(-c3cc(Cl)cc(Cl)c3)csc12 [Compound 9]
- EC50: > 30 µM

SMILES: C[C@H](NC(=O)c1cnc2c(-c3cccc(Cl)c3Cl)csc2c1N(C)C)c1ccccc1 [Compound 11]
- EC50: > 30 µM

SMILES: CN(C)c1c(C(=O)N[C@H]2CCc3ccccc32)cnc2c(-c3cccc(Cl)c3Cl)csc12 [Compound 12]
- EC50: > 30 µM

SMILES: O=C(N[C@H]1CCCc2ccccc21)c1cnc2c(-c3cccc(Cl)c3Cl)csc2c1N1CCOCC1 [Compound 13]
- EC50: 5 to 10 µM

SMILES: O=C(N[C@H]1CCOc2ccccc21)c1cnc2c(-c3cc(F)cc(F)c3F)csc2c1N1CCOCC1 [Compound 15]
- EC50: > 30 µM

SMILES: O=C(N[C@H]1CCc2ccccc21)c1cnc2c(-c3cc(F)cc(F)c3F)csc2c1N1CCOCC1 [Compound 16]
- EC50: > 30 µM

SMILES: CN1CCN(c2c(C(=O)N[C@H]3CCCc4ccccc43)cnc3c(-c4cc(Cl)cc(Cl)c4)csc23)CC1 [Compound 18]
- EC50: > 30 µM

SMILES: CN1CCN(c2c(C(=O)N[C@H]3CCOc4ccccc43)cnc3c(-c4cc(Cl)cc(Cl)c4)csc23)CC1 [Compound 19]
- EC50: > 30 µM

SMILES: CN1CCN(c2c(C(=O)NC3CCOc4ccccc43)cnc3c(-c4cccc(Cl)c4Cl)csc23)CC1 (stereo not shown) [Compound 20]
- EC50: > 30 µM

SMILES: CN(C)c1c(C(=O)N[C@H]2CCCc3ccccc32)cnc2c(-c3cccc(Cl)c3Cl)csc12 [Compound 21]
- EC50: > 30 µM

SMILES: CN(C)c1c(C(=O)Nc2cccc3ccccc23)cnc2c(-c3cccc(Cl)c3Cl)csc12 [Compound 22]
- EC50: > 30 µM

SMILES: CN(C)c1c(C(=O)N[C@H]2CCOc3ccccc32)cnc2c(-c3cc(F)cc(F)c3F)csc12 [Compound 23]
- EC50: > 30 µM

SMILES: O=C(N[C@H]1CCOc2ccccc21)c1cnc2c(-c3cccc(F)c3F)csc2c1N1CCOCC1 [Compound 24]
- EC50: > 30 µM

SMILES: CN(C)c1c(C(=O)N[C@H]2CCc3ccccc32)cnc2c(-c3cc(F)cc(F)c3F)csc12 [Compound 25]
- EC50: > 30 µM

SMILES: O=C(N[C@H]1CCOc2ccccc21)c1cnc2c(-c3cccc(Cl)c3Cl)csc2c1N1CC(F)(F)C1 [Compound 26]
- EC50: > 30 µM

SMILES: O=C(NC1CCOc2ccccc21)c1cnc2c(-c3cccc(Cl)c3Cl)csc2c1N1CC(F)(F)C1 (stereo not shown) [Compound 27]
- EC50: > 30 µM

SMILES: CN(C)c1c(C(=O)NC2CCOc3ccccc32)cnc2c(-c3cccc(Cl)c3Cl)csc12 (stereo not shown) [Compound 28]
- EC50: > 30 µM

SMILES: CN1CCN(c2c(C(=O)N[C@H]3CCc4ccccc43)cnc3c(-c4cc(Cl)cc(Cl)c4)csc23)CC1 [Compound 29]
- EC50: > 30 µM

SMILES: CN1CCN(c2c(C(=O)NC3CCCc4ccccc43)cnc3c(-c4cc(Cl)cc(Cl)c4)csc23)CC1 (stereo not shown) [Compound 30]
- EC50: > 30 µM

SMILES: CN(C)c1c(C(=O)N[C@H]2CCCc3ccccc32)cnc2c(-c3cc(Cl)cc(Cl)c3)csc12 [Compound 31]
- EC50: > 30 µM

SMILES: O=C(N[C@H]1CCCc2ccccc21)c1cnc2c(-c3cc(Cl)cc(Cl)c3)csc2c1N1CCOCC1 [Compound 32]
- EC50: > 30 µM

SMILES: Cc1sc2c(N(C)C)c(C(=O)N[C@H]3CCc4ccccc43)cnc2c1-c1cc(Cl)cc(Cl)c1 [Compound 33]
- EC50: > 30 µM

SMILES: Cc1sc2c(N(C)C)c(C(=O)N[C@H]3CCc4ccccc43)cnc2c1-c1cccc(Cl)c1Cl [Compound 34]
- EC50: > 30 µM

SMILES: Cc1sc2c(N(C)C)c(C(=O)N[C@H]3CCCc4ccccc43)cnc2c1-c1cccc(Cl)c1Cl [Compound 35]
- EC50: > 30 µM

SMILES: Cc1sc2c(N(C)C)c(C(=O)Nc3cccc4ccccc34)cnc2c1-c1cccc(Cl)c1Cl [Compound 37]
- EC50: > 30 µM

SMILES: Cc1sc2c(N(C)C)c(C(=O)N[C@H]3CCCc4ccccc43)cnc2c1-c1cc(Cl)cc(Cl)c1 [Compound 38]
- EC50: > 30 µM

SMILES: O=C(N[C@H]1CCc2ccccc21)c1cnc2c(-c3cccc(Cl)c3Cl)csc2c1N1CC(F)(F)C1 [Compound 39]
- EC50: > 30 µM

SMILES: O=C(N[C@H]1CCOc2ccccc21)c1cnc2c(-c3cc(F)cc(F)c3F)csc2c1N1CC(F)(F)C1 [Compound 40]
- EC50: > 30 µM

SMILES: O=C(N[C@H]1CCc2ccccc21)c1cnc2c(-c3cc(F)cc(F)c3F)csc2c1N1CC(F)(F)C1 [Compound 41]
- EC50: > 30 µM

SMILES: O=C(N[C@H]1CCOc2ccccc21)c1cnc2c(-c3cccc(C(F)(F)F)c3)csc2c1N1CCOCC1 [Compound 42]
- EC50: > 30 µM

SMILES: COc1cccc(-c2csc3c(N4CCOCC4)c(C(=O)N[C@H]4CCOc5ccccc54)cnc23)c1 [Compound 43]
- EC50: > 30 µM

SMILES: Cc1cccc(-c2csc3c(N4CCOCC4)c(C(=O)N[C@H]4CCOc5ccccc54)cnc23)c1C [Compound 44]
- EC50: > 30 µM

SMILES: O=C(N[C@H]1CCOc2ccccc21)c1cnc2c(-c3cc(F)cc(F)c3)csc2c1N1CCOCC1 [Compound 45]
- EC50: > 30 µM

SMILES: CN(C)c1c(C(=O)N[C@H]2CCOc3ccccc32)cnc2c(-c3cccc(F)c3F)csc12 [Compound 46]
- EC50: > 30 µM

SMILES: CN(C)c1c(C(=O)N[C@H]2CCOc3ccccc32)cnc2c(-c3cccc(C(F)(F)F)c3)csc12 [Compound 47]
- EC50: > 30 µM

SMILES: COc1cccc(-c2csc3c(N(C)C)c(C(=O)N[C@H]4CCOc5ccccc54)cnc23)c1 [Compound 48]
- EC50: > 30 µM

SMILES: O=C(Nc1cccc2ccccc12)c1cnc2c(-c3cc(Cl)cc(Cl)c3)csc2c1N1CCOCC1 [Compound 49]
- EC50: > 30 µM

SMILES: CN(C)c1c(C(=O)Nc2cccc3ccccc23)cnc2c(-c3cc(Cl)cc(Cl)c3)csc12 [Compound 50]
- EC50: > 30 µM

SMILES: CN(C)c1c(C(=O)N[C@H]2CCOc3ccccc32)cnc2c(-c3cc(F)cc(F)c3)csc12 [Compound 51]
- EC50: > 30 µM

SMILES: O=C1CCN(c2c(C(=O)N[C@H]3CCOc4ccccc43)cnc3c(-c4cc(Cl)cc(Cl)c4)csc23)CC1 [Compound 52]
- EC50: > 30 µM

SMILES: Cc1sc2c(N(C)C)c(C(=O)Nc3cccc4ccccc34)cnc2c1-c1cc(Cl)cc(Cl)c1 [Compound 54]
- EC50: > 30 µM

SMILES: Cc1sc2c(N3CC(F)(F)C3)c(C(=O)N[C@H]3CCCc4ccccc43)cnc2c1-c1cccc(Cl)c1Cl [Compound 55]
- EC50: > 30 µM

SMILES: Cc1sc2c(N3CC(F)(F)C3)c(C(=O)N[C@H]3CCc4ccccc43)cnc2c1-c1cccc(Cl)c1Cl [Compound 57]
- EC50: > 30 µM

SMILES: Cc1sc2c(N3CC(F)(F)C3)c(C(=O)N[C@H]3CCCc4ccccc43)cnc2c1-c1cc(Cl)cc(Cl)c1 [Compound 58]
- EC50: > 30 µM
